Experimental findings from patent US6656911B2, “Serine protease inhibitors” (Cortech, Inc., priority 1994, dated 2003) are described below.

The structures appear in SMILES notation.

Data set [1] deals with T1, human neutrophil elastase (HNE) (Homo sapiens, UniProt P08246).
T1 sequence (P08246 30-267): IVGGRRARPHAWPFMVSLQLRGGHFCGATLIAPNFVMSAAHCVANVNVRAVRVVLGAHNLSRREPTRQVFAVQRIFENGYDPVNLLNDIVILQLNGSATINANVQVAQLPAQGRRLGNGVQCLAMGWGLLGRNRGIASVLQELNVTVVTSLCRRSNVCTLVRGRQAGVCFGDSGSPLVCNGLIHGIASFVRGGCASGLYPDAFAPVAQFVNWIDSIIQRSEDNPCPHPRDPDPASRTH
The data set can be described thus: HNE Ki of CE compounds, tested as described in WO 96/16080. The format is biochemical. The note with it: read-out: HNE Ki.

Data set [2] can be described thus: Blood level screening after oral dose. It is filed as in vivo, Sprague-Dawley rats. The note with it: rat, oral gavage 10 mg/kg; for concentration at 3 h: read-out: Plasma Levels (μM) 3 hr. The procedure:
The inhibitors were dissolved or suspended in polyethylene glycol (PEG), PEG-400 or PEG:H2O:EtOH at a concentration of 10 mg/ml. Unfasted male Sprague-Dawley rats were given an oral dose of this solution by gavage. Rats received 10 mg inhibitor/kg body weight in a volume of 1 ml/kg. After 1,3 or 6 hr., the rats were killed with an overdose of urethane (2.5 g/kg; i.p.) and the blood collected in a heparinized tube via cardiac puncture. Red blood cells were separated from the plasma by centrifugation.
Depending on the inhibitor, one of four organics (ethyl acetate, toluene, isopropyl ether or methyl t-butyl ether) was used to extract the compound from the plasma. Inhibitor concentrations were measured by HPLC or LC/MS analysis.

Turning to `Cc1cccc(Cc2nnc(C(=O)C(NC(=O)Cn3c(=O)c(N)cc4ccccc43)C(C)C)o2)c1` (racemic) [CE2228, 3-(R,S)-Amino-quinolin-2-one-N-[1-(2-[5-(3-methylbenzyl)-1,3,4-oxadiazolyl]carbonyl)-2-(R,S)-methylpropyl]acetamide], in data set [1], the Ki worked out at 40 nM. The “Plasma Levels (μM) 1 hr” value in data set [2] (1 hr) worked out at 0.714 µM. For the same compound, the “Plasma Levels (μM) 3 hr” value in data set [2] was determined as 1.393 µM. Moreover, the “Plasma Levels (μM) 6 hr” value in data set [2] (6 hr) is 0.409 µM.

For the compound `CC(C)[C@H](NC(=O)CN1C(=O)N[C@H](Cc2ccccc2)C1=O)C(=O)c1noc(Cc2cccc(C(F)(F)F)c2)n1` [CE2141, 5-(R)-Benzyl-2,4-imidazolidinedione-N-[1-(3-[5-(3-trifluoromethylbenzyl)-1,2,4-oxadiazolyl]carbonyl)-2-(S)-methylpropyl]acetamide], the inhibition constant Ki in data set [1] turned out to be 64 nM. Further, in data set [2], the “Plasma Levels (μM) 3 hr” value is 0.005 µM.

With `Cc1cccc(Cc2nnc(C(=O)C(NC(=O)CN3C(=O)CCc4ccccc43)C(C)C)o2)c1` (stereo not drawn) [CE2088, 3,4-Dihydro-quinoline-2-one-N-[1-(2-[5-(3-methylbenzyl)-1,3,4-oxadiazolyl]carbonyl)-2-N-methylpropyl]acetamide], in data set [1], the Ki came out at 66 nM. The concentration at 1 h in data set [2] (male, Sprague-Dawley, plasma, 1 hr, read-out: Plasma Levels (μM) 1 hr) was 0.801 µM. Moreover, in data set [2] (male, Sprague-Dawley, plasma), the concentration at 3 h amounted to 0.755 µM.

Regarding `CC(=O)N1CC(=O)N(CC(=O)N[C@H](C(=O)c2nnc(Cc3cccc(C)c3)o2)C(C)C)C(=Cc2ccccc2)C1=O` [CE2099, 1-Acetyl-3-benzylidene piperazine-2,5-dione-N-[1-(2-[5-(3-methylbenzyl)-1,3,4-oxadiazolyl]carbonyl)-2-(S)-methylpropyl]acetamide], the Ki in data set [1] worked out at 1.9 nM. The concentration at 3 h in data set [2] (male, Sprague-Dawley, plasma) is 0.042 µM.

As to `CC(C)[C@H](NC(=O)[C@@H]1CCCN1C(=O)[C@@H](NS(C)(=O)=O)C(C)C)C(=O)c1noc(Cc2cccc(C(F)(F)F)c2)n1` [CE2172, Methylsulfonyl-L-valyl-N-[1-(3-[5-(3-trifluoromethylbenzyl)-1,2,4-oxadiazolyl]carbonyl)-2-(S)-methylpropyl]-L-prolinamide], in data set [1], the Ki was 2.2 nM. Also, the concentration at 3 h in data set [2] (male, Sprague-Dawley, plasma) stood at 0.021 µM.

Consider `Cc1cccc(Cc2nc(C(=O)[C@@H](NC(=O)[C@@H]3CCCN3C(=O)[C@@H](NC(=O)OCc3ccccc3)C(C)C)C(C)C)no2)c1` [CE2055, (Benzyloxycarbonyl)-L-valyl-N-[1-(3-[5-(3-methylbenzyl)-1,2,4-oxadiazolyl]carbonyl)-2-(S)-methylpropyl]-L-prolinamide], for which, in data set [2] (male, Sprague-Dawley, plasma), the concentration at 3 h worked out at 0.002 µM.

Consider `CC(C)[C@H](NC(=O)CN1Cc2ccccc2NC1=O)C(=O)c1noc(Cc2cccc(C(F)(F)F)c2)n1` [CE2219, 1,4-Quinazolin-2-one-N-[1-(3-[5-(3-trifluoromethylbenzyl)-1,2,4-oxadiazolyl]carbonyl)-2-(S)-methylpropyl]acetamide], for which the Ki in data set [1] worked out at 537 nM.

Consider `CC(C)[C@H](NC(=O)[C@@H]1CCCN1C(=O)[C@@H](NC(=O)OCc1ccncc1)C(C)C)C(=O)c1noc(Cc2cccc(C(F)(F)F)c2)n1` [CE2185, 4-Pyridylmethyleneoxycarbonyl-L-valyl-N-[1-(3-[5-(3-trifluoromethylbenzyl)-1,2,4-oxadiazolyl]carbonyl)-2-(S)-methylpropyl]-L-prolinamide], for which the Ki in data set [1] worked out at 0.27 nM.

In the case of `CC(C)[C@H](NC(=O)[C@@H]1CCCN1C(=O)[C@@H](NC(=O)OCc1ccccc1)C(C)C)C(=O)c1noc(Cc2ccc(-c3ccccc3)cc2)n1` [CE2058, (Benzyloxycarbonyl)-L-valyl-N-[1-(3-[5-(4-phenylbenzyl)-1,2,4-oxadiazolyl]carbonyl)-2-(S)-methylpropyl]-L-prolinamide], the inhibitory constant (Ki) in data set [1] is 0.564 nM.

As for `Cc1cccc(Cc2nnc(C(=O)[C@@H](NC(=O)CN3C(=O)CN(Cc4ccccc4)C(=O)[C@H]3Cc3ccccc3)C(C)C)o2)c1` [CE2144, 4-[1-Benzyl-3-(R)-benzyl-piperazine-2,5,-dione]-N-[1-([5-(3-methylbenzyl)-1,3,4-oxadiazolyl]carbonyl)-2-(S)-methylpropyl]acetamide], in data set [1], the Ki was found to be 9.3 nM.
